Experimental data from ChEMBL document CHEMBL1201862, “PubChem BioAssay data set” (2004).
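Values below derive from 48-hour exposures of cells grown in 96-well plates, with endpoints linearly interpolated between the two concentrations bracketing the appropriate inhibition level. The concentration for 50% growth inhibition is given as GI50.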 The source made the active and inactive calls. Rule as the data show it: active = GI50 up to about 1.1 µM and inactive = higher.

Columns and labels:
Assay in all cases: inhibition of tumour cell growth, NCI panel, 48 h
[1] = test system: SN12C
[2] = test system: 786-0
[3] = test system: NCI-H460
[4] = test system: A498
[5] = test system: NCI-H23
[6] = test system: MDA-MB-435
[7] = test system: IGROV-1
[8] = test system: Hs-578T
[9] = test system: CCRF-CEM
[10] = test system: UACC-62
[11] = test system: T47D
[12] = test system: EKVX
[13] = test system: PC-3
[14] = test system: SK-MEL-5
[15] = test system: SNB-19
[16] = test system: M14
[17] = test system: ACHN
[18] = test system: MDA-N
[19] = test system: SNB-75
[20] = test system: COLO 205
[21] = test system: HOP-92
[22] = test system: SK-OV-3
[23] = test system: SW-620
[24] = test system: SK-MEL-2
[25] = test system: NCI-H522
[26] = test system: NCI/ADR-RES
[27] = test system: HT-29
[28] = test system: OVCAR-4
[29] = test system: DU-145
[30] = test system: CAKI-1
[31] = test system: MOLT-4
[32] = test system: SF-539
[33] = test system: A549
[34] = test system: SK-MEL-28
[35] = test system: BT-549
[36] = test system: SF-295
[37] = test system: HCT-15
[38] = test system: HOP-62
[39] = test system: MDA-MB-231
[40] = test system: OVCAR-5
[41] = test system: U-251
[42] = test system: UACC-257
[43] = test system: SF-268
[44] = test system: KM12
[45] = test system: HCT-116
[46] = test system: OVCAR-3
[47] = test system: TK-10
[48] = test system: RXF 393
[49] = test system: UO-31
[50] = test system: HL-60
[51] = test system: LOX IMVI
[52] = test system: MCF7
[53] = test system: OVCAR-8
[54] = test system: Malme-3M
[55] = test system: RPMI-8226
[56] = test system: NCI-H226
[57] = test system: K562

## N#Cc1ccc(N2CCOCC2)cc1
[1]
  GI50: > 100 µM (inactive)
[2]
  GI50: > 100 µM (inactive)
[3]
  GI50: > 100 µM (inactive)
[4]
  GI50: 42.8 µM (inactive)
[5]
  GI50: 80.5 µM (inactive)
[6]
  GI50: > 100 µM (inactive)
[7]
  GI50: > 100 µM (inactive)
[8]
  GI50: > 100 µM (inactive)
[9]
  GI50: 0.975 µM (active)
[10]
  GI50: > 100 µM (inactive)
[11]
  GI50: > 100 µM (inactive)
[12]
  GI50: > 100 µM (inactive)
[13]
  GI50: > 100 µM (inactive)
[14]
  GI50: > 100 µM (inactive)
[15]
  GI50: > 100 µM (inactive)
[16]
  GI50: > 100 µM (inactive)
[17]
  GI50: > 100 µM (inactive)
[18]
  GI50: > 100 µM (inactive)
[19]
  GI50: > 100 µM (inactive)
[20]
  GI50: > 100 µM (inactive)
[21]
  GI50: > 100 µM (inactive)
[22]
  GI50: > 100 µM (inactive)
[23]
  GI50: > 100 µM (inactive)
[24]
  GI50: > 100 µM (inactive)
[25]
  GI50: 34.2 µM (inactive)
[26]
  GI50: > 100 µM (inactive)
[27]
  GI50: > 100 µM (inactive)
[28]
  GI50: > 100 µM (inactive)
[29]
  GI50: > 100 µM (inactive)
[30]
  GI50: > 100 µM (inactive)
[31]
  GI50: > 100 µM (inactive)
[32]
  GI50: > 100 µM (inactive)
[33]
  GI50: > 100 µM (inactive)
[34]
  GI50: > 100 µM (inactive)
[35]
  GI50: 24.9 µM (inactive)
[36]
  GI50: > 100 µM (inactive)
[37]
  GI50: > 100 µM
[38]
  GI50: > 100 µM (inactive)
[39]
  GI50: > 100 µM (inactive)
[40]
  GI50: > 100 µM (inactive)
[41]
  GI50: > 100 µM (inactive)
[42]
  GI50: > 100 µM (inactive)
[43]
  GI50: > 100 µM (inactive)
[44]
  GI50: > 100 µM (inactive)
[45]
  GI50: > 100 µM (inactive)
[46]
  GI50: > 100 µM (inactive)
[47]
  GI50: > 100 µM (inactive)
[48]
  GI50: > 100 µM (inactive)
[49]
  GI50: > 100 µM (inactive)
[50]
  GI50: > 100 µM (inactive)
[51]
  GI50: 23 µM (inactive)
[52]
  GI50: > 100 µM (inactive)
[53]
  GI50: > 100 µM (inactive)

## O=c1cc(CO)n(CCc2c[nH]c3ccccc23)cc1O
[1]
  GI50: 36.2 µM (inactive)
[2]
  GI50: 34.8 µM (inactive)
[3]
  GI50: 33.3 µM (inactive)
[5]
  GI50: 73.8 µM (inactive)
[6]
  GI50: > 100 µM (inactive)
[7]
  GI50: 86.5 µM (inactive)
[8]
  GI50: 28.1 µM (inactive)
[9]
  GI50: 29.5 µM (inactive)
[10]
  GI50: 23.9 µM (inactive)
[11]
  GI50: 24.5 µM (inactive)
[12]
  GI50: > 100 µM (inactive)
[13]
  GI50: > 100 µM (inactive)
[14]
  GI50: 47.8 µM (inactive)
[15]
  GI50: 37.1 µM (inactive)
[16]
  GI50: 47.1 µM (inactive)
[17]
  GI50: 66.5 µM (inactive)
[18]
  GI50: 21.3 µM (inactive)
[20]
  GI50: 55 µM (inactive)
[21]
  GI50: 30.6 µM (inactive)
[22]
  GI50: 48.4 µM (inactive)
[23]
  GI50: > 100 µM (inactive)
[24]
  GI50: 30.1 µM (inactive)
[25]
  GI50: 24.7 µM (inactive)
[26]
  GI50: 32.3 µM (inactive)
[27]
  GI50: 34 µM (inactive)
[29]
  GI50: 28.2 µM (inactive)
[30]
  GI50: 46.2 µM (inactive)
[31]
  GI50: 6.21 µM (inactive)
[32]
  GI50: > 100 µM (inactive)
[33]
  GI50: > 100 µM (inactive)
[35]
  GI50: > 100 µM (inactive)
[36]
  GI50: > 100 µM (inactive)
[37]
  GI50: 51.2 µM
[38]
  GI50: 62.7 µM (inactive)
[39]
  GI50: 31.3 µM (inactive)
[40]
  GI50: 81.5 µM (inactive)
[41]
  GI50: 39.6 µM (inactive)
[54]
  GI50: 13.4 µM (inactive)
[42]
  GI50: > 100 µM (inactive)
[43]
  GI50: 20.7 µM (inactive)
[44]
  GI50: 42.1 µM (inactive)
[45]
  GI50: 71.9 µM (inactive)
[46]
  GI50: 26.2 µM (inactive)
[47]
  GI50: > 100 µM (inactive)
[49]
  GI50: 49.1 µM (inactive)
[51]
  GI50: > 100 µM (inactive)
[55]
  GI50: > 100 µM (inactive)
[52]
  GI50: 25.1 µM (inactive)
[53]
  GI50: 69.7 µM (inactive)

## CC1=NNC(=O)C1C1CC(c2c[nH]c3ccccc23)=NN(C(N)=O)C1=O (configuration not stated)
[1]
  GI50: > 100 µM (inactive)
[2]
  GI50: > 100 µM (inactive)
[3]
  GI50: 62.4 µM (inactive)
[4]
  GI50: > 100 µM (inactive)
[5]
  GI50: 29.9 µM (inactive)
[6]
  GI50: 56 µM (inactive)
[7]
  GI50: 4.4 µM (inactive)
[8]
  GI50: 85.1 µM (inactive)
[9]
  GI50: 31 µM (inactive)
[10]
  GI50: 80.7 µM (inactive)
[11]
  GI50: 61 µM (inactive)
[12]
  GI50: > 100 µM (inactive)
[13]
  GI50: 65.3 µM (inactive)
[14]
  GI50: 82 µM (inactive)
[15]
  GI50: 75 µM (inactive)
[16]
  GI50: > 100 µM (inactive)
[17]
  GI50: 97.9 µM (inactive)
[18]
  GI50: 68.7 µM (inactive)
[19]
  GI50: 87.3 µM (inactive)
[20]
  GI50: 53.2 µM (inactive)
[21]
  GI50: > 100 µM (inactive)
[22]
  GI50: > 100 µM (inactive)
[23]
  GI50: 92.9 µM (inactive)
[24]
  GI50: > 100 µM (inactive)
[25]
  GI50: 31.8 µM (inactive)
[26]
  GI50: > 100 µM (inactive)
[27]
  GI50: > 100 µM (inactive)
[56]
  GI50: > 100 µM (inactive)
[29]
  GI50: > 100 µM (inactive)
[30]
  GI50: > 100 µM (inactive)
[31]
  GI50: 33.7 µM (inactive)
[32]
  GI50: 91.4 µM (inactive)
[33]
  GI50: 64 µM (inactive)
[34]
  GI50: > 100 µM (inactive)
[35]
  GI50: 34.3 µM (inactive)
[36]
  GI50: 61.2 µM (inactive)
[37]
  GI50: 37.8 µM
[38]
  GI50: > 100 µM (inactive)
[39]
  GI50: > 100 µM (inactive)
[40]
  GI50: > 100 µM (inactive)
[41]
  GI50: 51.2 µM (inactive)
[54]
  GI50: > 100 µM (inactive)
[57]
  GI50: 33 µM (inactive)
[42]
  GI50: > 100 µM (inactive)
[43]
  GI50: > 100 µM (inactive)
[44]
  GI50: 28.5 µM (inactive)
[45]
  GI50: 83.2 µM (inactive)
[46]
  GI50: > 100 µM (inactive)
[47]
  GI50: > 100 µM (inactive)
[48]
  GI50: 52.1 µM (inactive)
[49]
  GI50: 28.7 µM (inactive)
[50]
  GI50: 29 µM (inactive)
[51]
  GI50: 62.7 µM (inactive)
[55]
  GI50: 30.8 µM (inactive)
[53]
  GI50: 98.6 µM (inactive)
